Source: ChEMBL document CHEMBL1201862, “PubChem BioAssay data set” (2004)
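Protocol summary: plate cells (96-well), add compound at 5 concentrations, incubate 48 h, interpolate endpoints linearly. GI50 is the concentration that inhibits growth by half.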 Active and inactive are the calls of the source. Cut-off read from the data, not from the text of the source: active = GI50 up to about 1.1 µM and inactive = higher.

Tests used:
Assay in all cases: inhibition of tumour cell growth, NCI panel, 48 h
[1] = test system: OVCAR-3
[2] = test system: HOP-62
[3] = test system: HCT-116
[4] = test system: PC-3
[5] = test system: KM12
[6] = test system: SF-295
[7] = test system: MOLT-4
[8] = test system: U-251
[9] = test system: ACHN
[10] = test system: NCI-H226
[11] = test system: UACC-257
[12] = test system: NCI-H23
[13] = test system: MDA-N
[14] = test system: DU-145
[15] = test system: SF-268
[16] = test system: SK-MEL-28
[17] = test system: RXF 393
[18] = test system: HL-60

Measured: GI50

O=[N+]([O-])c1ccc2c(c1)C1=C(CO2)Cc2ccccc2O1
inactive: [1] 19.8 µM | [2] 64.6 µM | [3] 16.3 µM | [4] 19.1 µM | [5] 20.1 µM | [6] 37.8 µM | [7] > 10 µM | [8] 17.6 µM | [9] 15.5 µM | [10] 26.2 µM | [11] 17.8 µM | [12] 22 µM | [13] 17.9 µM | [14] 33.9 µM | [15] 21.3 µM

COc1cc2c(cc1O)C(=O)O[C@@H]1CC=C3CCN(C)[C@H]3[C@H]21
inactive: [16] > 25 µM | [1] > 25 µM | [2] > 25 µM | [3] > 25 µM | [4] > 25 µM | [5] > 25 µM | [6] > 25 µM | [7] > 25 µM | [8] > 25 µM | [9] > 25 µM | [10] > 25 µM | [11] > 25 µM | [12] > 25 µM | [13] > 25 µM | [17] > 25 µM | [14] > 25 µM | [15] > 25 µM

[O-][S+](Nc1ccccc1)c1ccc(Cl)cc1 (configuration not stated)
inactive: [16] > 100 µM | [1] > 100 µM | [2] > 100 µM | [3] 61.5 µM | [18] > 100 µM | [5] 17.5 µM | [6] > 100 µM | [7] 31.4 µM | [8] 23.6 µM | [9] > 100 µM | [10] > 100 µM | [11] > 100 µM | [12] > 100 µM | [13] > 100 µM | [14] 91.4 µM | [15] 16.2 µM

CNCCCNC(=S)Cn1cc(C)c(=O)[nH]c1=O
inactive: [16] > 56.9 µM | [1] > 48.9 µM | [2] > 54.3 µM | [3] > 33.8 µM | [4] > 45.5 µM | [5] > 48.1 µM | [6] > 27 µM | [7] > 35.2 µM | [8] > 47.5 µM | [9] > 49.2 µM | [10] > 59 µM | [11] > 37.9 µM | [12] > 41.8 µM | [13] > 100 µM | [17] > 60.3 µM | [14] > 52.2 µM | [15] > 39.1 µM

CC1(C)[C@@H]2CC[C@@]1(C)CN(CCC[N+](C)(C)C)C2
inactive: [16] > 100 µM | [1] > 100 µM | [2] > 100 µM | [3] > 100 µM | [4] > 100 µM | [5] > 100 µM | [6] > 100 µM | [7] > 100 µM | [8] > 100 µM | [9] > 100 µM | [10] > 100 µM | [11] > 100 µM | [12] > 100 µM | [13] > 100 µM | [17] > 100 µM | [14] > 100 µM | [15] > 100 µM

S=C(Nc1ccccc1)c1ccc(CN2CCCCC2)s1
inactive: [16] 16.2 µM | [1] 48.6 µM | [2] 26.5 µM | [3] 17.5 µM | [4] 29.7 µM | [18] 14.9 µM | [5] 17.8 µM | [6] 18.5 µM | [7] 16.1 µM | [8] 19 µM | [9] 45 µM | [11] 19.4 µM | [12] 19.4 µM | [13] 17.5 µM | [14] 60.1 µM | [15] 26.4 µM

O=[N+]([O-])/C(C(Cl)=C(Cl)Cl)=C1\Nc2ccc([N+](=O)[O-])cc2N1
inactive: [16] > 100 µM | [1] > 100 µM | [2] > 100 µM | [3] 46.5 µM | [4] > 100 µM | [5] > 100 µM | [6] > 100 µM | [7] 45.1 µM | [8] 60 µM | [9] > 100 µM | [10] > 100 µM | [11] > 100 µM | [12] > 100 µM | [13] 75.3 µM | [14] > 100 µM | [15] 61.8 µM

Nn1c(CNc2ccc(-c3nnc(Nc4ccc(Cl)cc4)n3N)cc2)nnc1Nc1ccc(Cl)cc1
inactive: [16] > 100 µM | [2] 34.1 µM | [3] 37.1 µM | [4] > 100 µM | [5] > 100 µM | [6] > 100 µM | [7] 55.7 µM | [8] > 100 µM | [9] > 100 µM | [10] > 100 µM | [11] > 100 µM | [12] > 100 µM | [13] 80.7 µM | [17] > 100 µM | [14] > 100 µM | [15] > 100 µM

COc1ccc(/N=C2/C(=N/c3ccc(OC)cc3)N(c3ccccc3)C(=S)N2N=C=C2Sc3ccccc3N2C)cc1
inactive: [16] > 100 µM | [1] > 100 µM | [2] 52.5 µM | [3] 88.1 µM | [4] > 100 µM | [5] > 100 µM | [6] > 100 µM | [7] > 100 µM | [8] 88.7 µM | [9] > 100 µM | [10] > 100 µM | [11] > 100 µM | [12] 9.27 µM | [13] > 100 µM | [17] 3.75 µM | [14] > 100 µM | [15] > 100 µM
